Entries after “also recorded” stand apart in the source; their conditions may differ.
Tests used:
mitofusin [1] = conditions: Rocha et al 2018 Science 360:336; read-out: EC50 as mitofusin activator; cited from earlier work
Plasma stability, human = type: in vitro ADME; conditions: H
MFN2 = target: T1, MFN2 (Homo sapiens, UniProt O95140); assay: conformational opening of mitofusin 2; type: biochemical; conditions: FIG. 6B
T1 sequence (O95140 1-757): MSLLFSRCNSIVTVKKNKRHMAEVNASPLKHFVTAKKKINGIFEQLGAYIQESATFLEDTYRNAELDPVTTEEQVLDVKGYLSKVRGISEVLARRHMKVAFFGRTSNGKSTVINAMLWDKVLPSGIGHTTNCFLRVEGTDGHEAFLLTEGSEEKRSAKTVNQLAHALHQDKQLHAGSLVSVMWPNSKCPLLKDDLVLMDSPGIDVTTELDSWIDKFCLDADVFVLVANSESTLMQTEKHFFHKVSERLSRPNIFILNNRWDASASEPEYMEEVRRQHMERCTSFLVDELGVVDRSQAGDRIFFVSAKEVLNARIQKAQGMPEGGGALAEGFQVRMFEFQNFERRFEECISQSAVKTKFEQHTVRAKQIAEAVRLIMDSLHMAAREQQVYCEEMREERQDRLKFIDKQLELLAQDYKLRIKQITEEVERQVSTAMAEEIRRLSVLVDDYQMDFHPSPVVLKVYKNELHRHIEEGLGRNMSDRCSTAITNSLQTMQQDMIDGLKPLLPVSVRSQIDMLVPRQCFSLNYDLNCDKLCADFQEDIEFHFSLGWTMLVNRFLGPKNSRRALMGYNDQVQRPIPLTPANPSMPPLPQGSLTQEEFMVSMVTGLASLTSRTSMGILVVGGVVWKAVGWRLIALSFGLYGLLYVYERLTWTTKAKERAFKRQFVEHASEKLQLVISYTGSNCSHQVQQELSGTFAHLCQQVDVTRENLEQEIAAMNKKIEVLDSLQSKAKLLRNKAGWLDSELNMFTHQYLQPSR

Plasma stability, mouse = type: in vitro ADME; conditions: M
mitofusin [2] = system: T2, mitofusin; assay: mitofusin-dependent mitochondrial elongation (aspect ratio), functional screening; type: cell-based, mouse; conditions: DMSO vehicle, Reg C positive control; FIGS. 2-5
T2 construct: EC50 Mito Elongation; other: benchmark <30; unit given as nm; results of functional screening (mitochondrial elongation); other: DMSO vehicle, Reg C positive control

| SMILES | EC50 (mitofusin [1]) [nM] | results of functional screening (mitochondrial elongation) (mitofusin [2]) | also measured |
| --- | --- | --- | --- |
| CC1CCCCC1NC(=O)NCCSCc1ccccc1 (stereo not shown) [compound A, 1-[2-(benzylsulfanyl)ethyl]-3-(2-methylcyclohexyl)urea] | ~30 |  |  |
| O=C(CCCCCc1ccccc1)NC1CCC(O)CC1 (stereo not shown) [MiM111, N-(4-hydroxycyclohexyl)-6-phenylhexanamide] |  |  | Plasma Stability (120 min.) (Plasma stability, human): 87%; conformational opening of MFN2 (MFN2): induces an open conformation of its target MFN2; also recorded: conformational opening of MFN 2 mimics that of an agonist peptide; Plasma Stability (120 min.) (Plasma stability, mouse): 100% |
| CC(Sc1nnc(C2CC2)n1-c1ccccc1)C(=O)Nc1sc2c(c1C(N)=O)CCC2 (stereo not shown) [compound B, 2-{2-[(5-cyclopropyl-4-phenyl-4H-1,2,4-triazol-3-yl)sulfanyl]propanamido}-4H,5H,6H-cyclopenta[b]thiophene-3-carboxamide] | ~10 |  |  |
| O=C(CCCCCc1ccccn1)NC1CCC(O)CC1 (stereo not shown) [MiM111 N1, (4-Hydroxycyclohexyl)-6-(pyridin-2-yl)hexanamide] |  | All compounds except MiM111 N1 were highly active |  |
| CC1CC(O)CCC1NC(=O)NCCCCc1ccccc1 (stereo not shown) [MiM5, 1-(4-Hydroxy-2-methylcyclohexyl)-3-(4-phenylbutyl)urea] |  | highly active |  |

Reference: US12409157B2, “Mitofusin activators and methods of use thereof” (Mitochondria Emotion, Inc., priority 2019, dated 2025)
